Test results published in patent US20100331363A1, “TREATMENT OF MITOCHONDRIAL DISORDERS USING A FARNESYL TRANSFERASE INHIBITOR” (Link Medicine Corporation, priority 2008, published 2010).
Entries after “also recorded” stand apart in the source; their conditions may differ. Read-outs that look alike come from different tables or passages of the source.

Legend:
[1] = biological target: FTase (Homo sapiens, UniProt P49354+P49356); test: Table 5A in vitro FTI (H-Ras, K-Ras protein) and Ki FTase; assay type: biochemical
Source text: (§1) The selectivity of LNK-754 for FTase over GGTAse is shown below in Table 5A.

[2] = biological target: T1, GGTase (Homo sapiens, UniProt P49354+P53609); test: Table 5A in vitro GGTI (H-Ras, K-Ras CAAX mutant); assay type: biochemical
Source text: as §1

[3] = tested on: isolated islet cells; test: Insulin secretion assay, isolated islet cells; assay type: cell-based; conditions: for increase in insulin stimulation: 10 nM, high glucose conditions (15 mM)
Method: One example of such an assay is as follows: prior to glucose-induced insulin secretion, cells were cultured for two hours in RPMI containing 3 mM glucose without serum. Cells were then washed and preincubated for 30 min in modified Krebs-Ringer bicarbonate buffer (KRB) containing (in mM): 119 NaCl, 4.6 KCl, 5 NaHCO3, 2 CaCl2, 1 MgSO4, 0.15 Na2HPO4, 0.4 KH2PO4, 20 HEPES, 2 glucose, 0.05% BSA, pH 7.4. This was followed by 30 min incubation in media containing either 3 mM glucose (to simulate low glucose conditions) or 15 mM glucose (to simulate high glucose conditions). Media are treated with varying concentrations of compound (1 nM and 10 nM). Media was collected and stored at −20° C. for insulin measurement. Insulin was measured by ELISA.
In both graphs, insulin is measured in (pictogram/ml). […] The amount of insulin secretion stimulated is dependent on the concentration of compound, incubation time, and cell-type. […] This distinguishes the effect of LNK-754 from sulfonyl urea compounds, the current standard oral anti-diabetic drug which increases insulin secretion under all conditions (not desired).

[4] = biological target: T1, GGTase; test: GGTase inhibitory activity, general statement; assay type: biochemical; conditions: selective FTase inhibitors
[5] = tested on: autophagy-related gene transcripts; test: mRNA of autophagy-related genes (Atg1, p62) in SH-SY5Y cells; assay type: cell-based, human; conditions: 100 nM
Method: Quantitative real-time PCR: Gene expression profiles were done by qPCR on series of known autophagy genes. RNA was extracted with Tri-reagent (Sigma), and cDNAs generated using iScript (Biorad). qPCR analysis was carried out in a 96 well plate using an iCycler (BioRad, Hercules, Calif.), and iQ SYBR Green Supermix (Biorad) according to the manufacturer's specifications.
(§2) Rapamycin is a well-characterized autophagy stimulator that acts through inhibition of mTOR, a kinase involved in nutrient signaling and regulation of cell growth and survival.

[6] = tested on: TAU441 transgenic mice; test: Porsolt forced swim task in TAU441 transgenic mice; assay type: in vivo, mouse; conditions: 0.09 mg/kg daily for 90 days
Source text: Tests relevant to depression-like behaviors in rodents are primarily stress-induced reductions in avoidance or escape, termed behavioral despair. One of the most widely used animal tests for depression is the Porsolt forced swim task (Porsolt et al., Arch. Int. Pharmacodyn. Ther. 229(2):327-36, 1977; Porsolt et al., Eur. J. Pharmacol. 47(4):379-91, 1978). This study was designed to evaluate the effects of treatment with LNK-754 on behavior of TAU441 transgenic mice. At start of the treatment, the animals were 5 months old. Untreated non-transgenic animals of the same age were tested and sacrificed serving as the baseline group. Mice received vehicle or LNK-754-TS at a dose of 0.09 mg per kg, 7 days a week for 90 days. In the last week of the treatment period and before sacrifice, mice were evaluated using the Porsolt forced swim task (FIG. 10B).

[7] = tested on: APP/PS1 transgenic mice; test: Morris water maze in APP/PS1 transgenic mice; assay type: in vivo, mouse; conditions: 0.9 mg/kg once every 24 hours, vs vehicle
Method: Animals and treatments: Male and female human WT alpha-synuclein over-expressing transgenic mice^32 at 6 months of age were given vehicle (10% beta-cyclodextrin) or LNK-754-TS (0.09, 0.9 and 9 mg/kg) per oral gavage twice daily for 3 months or animals at 7 months of age were given vehicle (2.5% beta-cyclodextrin) or LNK-754-TS (2 mg/kg) once every three days for 3 months. Male and female TAU transgenic mice expressing TAU441 bearing the missense mutations V337M^50 and R406W under the control of the murine Thy-1 promoter with a CB6xC57BL/6 background were 5 months old at the time when the oral treatment for three months with LNK-754-TS (0.9 and 0.09 mg/kg) as well as vehicle (2.5% beta-cyclodextrin) was started. Female human APP/PS1 (APP (London V7171)/PS1(A246E)) over-expressing transgenic mice were treated with LNK-754-TS (0.9 mg/kg) or vehicle (2.5% beta-cyclodextrin) for 2 months or 12 days.
Morris water maze (MWM) analysis of cognitive performance: In APP/PS1 transgenic animals, swimming behavior in a Morris Water Maze was videotaped and analyzed (Ethovision, Noldus, Wageningen, Netherlands). For mice, a place navigation test was used to locate the hidden platform in five blocks of three trials over three consecutive days. […] The time each mouse needed for location of the platform was measured. […] The time and path length each rat needed to locate the platform was measured. […]

[8] = tested on: HDJ2; test: Inhibition of HDJ2 farnesylation in SH-SY5Y cells; assay type: cell-based, human; conditions: continuous exposure over long periods
[9] = tested on: p70 S6 kinase (S6K) phosphorylation, mTOR pathway; test: p70 S6 kinase phosphorylation in SH-SY5Y cells; assay type: cell-based, human; conditions: SH-SY5Y (FIG. 8f)
Source text: as §2

| SMILES | Ki [1] [nM] | GGTI/FTI (H-Ras) ([1]; ratio) | GGTI/FTI (K-Ras) ([1]; ratio) | IC50 ([1]; read-out: H-Ras protein CLVS in vitro FTI) [nM] | IC50 ([1]; read-out: K-Ras protein CVIM in vitro FTI) [nM] | IC50 ([2]; read-out: H-Ras CAAX Mutant GGTI) [nM] | IC50 ([2]; read-out: K-Ras CAAX Mutant GGTI) [nM] | increase in insulin stimulation ([3]; 2.5 days of incubation) [%] | increase in insulin stimulation ([3]; 3 days of incubation) [%] | insulin secretion under basal glucose conditions ([3]; basal glucose (3 nM)) | GGTase inhibitory activity [4] | transcript encoding p62 ([5]; SH-SY5Y (FIG. 8e)) | mRNA levels of a set of autophagy-related genes (incl. Atg1) ([5]; SH-SY5Y (FIG. 8d)) | behavior compared with non-transgenic mice, forced swim task [6] | floating, forced swim task ([6]; vs vehicle) | struggling behavior, forced swim task ([6]; vs vehicle) | cognitive performance, Morris water maze ([7]; 12 days) | performance in the Morris water maze ([7]; two months) | IC50 [8] [nM] | phosphorylation of p70 S6 kinase (S6K) [9] |
| --- | --- | --- | --- | --- | --- | --- | --- | --- | --- | --- | --- | --- | --- | --- | --- | --- | --- | --- | --- | --- |
| C#Cc1cccc(-c2cc(=O)n(C)c3ccc([C@](O)(c4ccc(Cl)cc4)c4cncn4C)cc23)c1 [LNK-754, (R)-6-[(4-chlorophenyl)-hydroxyl-(1-methyl-1-H-imidazol-5-yl)-methyl]-4-(3-ethynylphenyl)-1-methyl-2-(1H)-quinonlinone] | < 0.05 | 580 | 40.11 | 0.9 | 72 | 552 | 2890 | ~75 | ~55 | not under basal glucose conditions; also recorded: does not affect basal insulin secretion | little to no GGTase inhibitory activity | – | – | – | – | – | – | – | – | – |
| C#Cc1cccc(-c2cc(=O)n(C)c3ccc([C@](O)(c4ccc(Cl)cc4)c4cncn4C)cc23)c1 [LNK-754-TS, (R)-6-[(4-chlorophenyl)-hydroxyl-(1-methyl-1-H-imidazol-5-yl)-methyl]-4-(3-ethynylphenyl)-1-methyl-2-(1H)-quinonlinone (2S, 3S)-dihydroxybutanedioate] | – | – | – | – | – | – | – | – | – | – | – | induced upregulation; also recorded: increased | unaffected | behaved similar to non-transgenic mice; also recorded: behaved similarly to non-tg mice | significantly less floating; also recorded: decreasing floating behavior | higher percentage of struggling behavior; also recorded: increasing struggling behavior | significant cognitive improvement | performed significantly better; also recorded: significant cognitive improvement | 10 | did not inhibit phosphorylation |
